Experimental data reported in patent US10662203B2, “Pyrido[2,3-b]indole compounds for the treatment and prophylaxis of bacterial infection” (Hoffmann-La Roche Inc., priority 2017, dated 2020).
Converted amounts (≈) assume the structure as drawn.

Experiments:
A. baumannii (ATCC17978) = experiment: 50% growth inhibitory concentration (IC50) determination assay; assay type: cell-based; settings: Iso-Sensitest broth, 0.098 = detection limit
How it was run: (§1)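 Compounds were two-fold serially diluted from 50 to 0.097 μM final in Iso-Sensitest broth, inoculated to ~5×10^5 CFU/mL and incubated at 35±2° C. Growth was followed by OD at 600 nm every 20 minutes for 16 h.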

[1] = Lyophilisation solubility assay (LYSA); assay type: physicochemical; settings: phosphate buffer, pH 6.5, aqueous buffer, thermodynamic from solid, 0.05 M phosphate buffer, HPLC-UV
How it was run: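 Read-out is HPLC-UV of the filtered solution and its 1/10 dilution. The dried residue of a 10 mM DMSO stock was redissolved in 0.05 M pH 6.5 phosphate buffer, then stirred 1 h, shaken 2 h and held overnight. Run in duplicate.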

[2] = Cytotoxicity assay (HepG2, CellTiter-Blue cell viability); assay type: cell-based; settings: human; HepG2 cells, 3 days treatment; "*": the detection limit; read-out: CC50
Protocol: The cytotoxicity of compounds of present invention was assessed by HepG2 assay. HepG2 cells (ATCC HB-8065™) were seeded into 96-well plates (1.2×10^4 cells per well) and treated with compounds for 3 days, cell viability was measured at day 3 post compound treatment using the CellTiter-Blue® Cell Viability Assay (Promega, Cat. No. G8082). 20 μL of Cell titer blue buffer were added to each well of the cells, which were incubated for 3 hours at 37° C., and the fluorescence value was measured by a plate reader (Molecular Device SpectraMax M2). The CC50 value of each compound is plotted with GraphPad Prism using four parameter logistic equation.

S. aureus (ATCC29213) = experiment: 50% growth inhibitory concentration (IC50) determination assay; assay type: cell-based; settings: Iso-Sensitest broth, 0.098 = detection limit
How it was run: as §1

[3] = test system: K. pneumoniae (ATCC10031); experiment: as above; assay type: cell-based; settings: Iso-Sensitest broth, 0.098 = detection limit
How it was run: as §1

[4] = Acinetobacter baumannii, ATCC17978, A. baumannii ATCC17978

SMILES | IC50 (A. baumannii (ATCC17978); [4]) | solubility thermodynamic [1] | CC50 at 3 days [2] | IC50 (S. aureus (ATCC29213); Staphylococcus aureus) | IC50 ([3]; Klebsiella pneumoniae) | IC50 (A. baumannii (ATCC17978); A. baumannii ATCC17978) | IC50 (S. aureus (ATCC29213)) | IC50 [3]
CNc1cc(F)c(F)c2c1[nH]c1ncc(-c3cnc4c(c3)c(=O)c(C(=O)O)cn4NCCOC)c(N3CC[C@H]4CN(C)C[C@H]43)c12 (relative stereo) [Example 5.01, 6-[4-[cis-5-methyl-2,3,3a,4,6,6a-hexahydropyrrolo[2,3-c]pyrrol-1-yl]-5,6-difluoro-8-(methylamino)-9H-pyrido[2,3-b]indol-3-yl]-1-(2-methoxyethylamino)-4-oxo-1,8-naphthyridine-3-carboxylic acid] | 0.19 µM | 425 µg/mL (≈ 687 µM) | 43500 nM | – | – | – | – | –
CNc1cc(F)c(F)c2c1[nH]c1ncc(-c3cnc4c(c3)c(=O)c(C(=O)O)cn4C)c(N3CCCC3CN(C)C)c12 (centres unmarked) [Example 1.12] | 0.294 µM | 321 µg/mL (≈ 572 µM) | 39200 nM | 0.11 µM | < 0.098 µM | – | – | –
CNc1cc(F)c(F)c2c1[nH]c1ncc(-c3cnc4c(c3)c(=O)c(C(=O)O)cn4CC(C)(C)N)c(N3CCOCC3)c12 [Example 1.38] | 0.883 µM | 15 µg/mL (≈ 26 µM) | > 100000 nM | 0.181 µM | < 0.098 µM | – | – | –
CNc1cc(F)c(F)c2c1[nH]c1ncc(-c3cnc4c(c3)c(=O)c(C(=O)O)cn4C)c(N3CCOC(CN(C)C)C3)c12 (centres unmarked) [Example 1.61] | 0.817 µM | 600 µg/mL (≈ 1040 µM) | > 100000 nM | 0.139 µM | < 0.098 µM | – | – | –
[2H]C([2H])([2H])Nc1cc(F)c(F)c2c1[nH]c1ncc(-c3cnc4c(c3)c(=O)c(C(=O)O)cn4C3CCNC3)c(N(C)C)c12 (centres unmarked) [Example 1.64] | 0.32 µM | – | > 100000 nM | < 0.098 µM | < 0.098 µM | – | – | –
CNc1cc(F)cc2c1[nH]c1ncc(-c3cnc4c(c3)c(=O)c(C(=O)O)cn4N3CCOCC3)c(N3CCOCC3)c12 [Example 1.71] | 0.923 µM | 11 µg/mL (≈ 19.2 µM) | > 100000 nM | < 0.098 µM | < 0.098 µM | – | – | –
CNc1cc(F)cc2c1[nH]c1ncc(-c3cnc4c(c3)c(=O)c(C(=O)O)cn4C)c(N3CCC(N(C)C)C3)c12 (centres unmarked) [Example 1.75] | 0.108 µM | 152 µg/mL (≈ 287 µM) | 68500 nM | 0.108 µM | < 0.098 µM | – | – | –
CNc1c(F)c(F)cc2c1[nH]c1ncc(-c3cnc4c(c3)c(=O)c(C(=O)O)cn4C)c(N3CCOC(CN(C)C)C3)c12 (centres unmarked) [Example 1.78] | 0.326 µM | 530 µg/mL (≈ 918 µM) | 42500 nM | 0.343 µM | < 0.098 µM | – | – | –
CNc1cc(F)c(F)c2c1[nH]c1ncc(-c3cnc4c(c3)c(=O)c(C(=O)O)cn4C)c(N3CCCC(CN(C)C)C3)c12 (centres unmarked) [Example 1.80] | 0.132 µM | – | 27500 nM | < 0.098 µM | < 0.098 µM | – | – | –
CNc1cc(F)c(F)c2c1[nH]c1ncc(-c3cnc4c(c3)c(=O)c(C(=O)O)cn4C)c(N3C[C@H](O)[C@@H](F)C3)c12 [Example 1.82] | 0.748 µM | – | > 100000 nM | < 0.098 µM | < 0.098 µM | – | – | –
CNc1cc(F)c(F)c2c1[nH]c1ncc(-c3cnc4c(c3)c(=O)c(C(=O)O)cn4C)c(N3C[C@H](C)[C@@H](O)C3)c12 [Example 1.83] | 0.519 µM | – | 26400 nM | < 0.098 µM | < 0.098 µM | – | – | –
CNc1cc(F)c(F)c2c1[nH]c1ncc(-c3cnc4c(c3)c(=O)c(C(=O)O)cn4C)c(N3CCC(C)(CO)C3)c12 (centres unmarked) [Example 1.84] | 0.326 µM | – | 26800 nM | < 0.098 µM | 0.11 µM | – | – | –
CNc1cc(F)cc2c1[nH]c1ncc(-c3cnc4c(c3)c(=O)c(C(=O)O)cn4C)c(N3CCOCC(CN(C)C)C3)c12 (centres unmarked) [Example 1.90] | 0.411 µM | 700 µg/mL (≈ 1220 µM) | > 100000 nM | 0.216 µM | < 0.098 µM | – | – | –
CNc1cc(F)cc2c1[nH]c1ncc(-c3cnc4c(c3)c(=O)c(C(=O)O)cn4C)c(N3CCCC(CN(C)C)C3)c12 (centres unmarked) [Example 1.94] | 0.155 µM | 301 µg/mL (≈ 540 µM) | 38700 nM | < 0.098 µM | < 0.098 µM | – | – | –
CNc1cc(F)c(F)c2c1[nH]c1ncc(-c3cnc4c(c3)c(=O)c(C(=O)O)cn4C3CCNC3)c(N3CCSCC3)c12 (centres unmarked) [Example 1.98] | 0.744 µM | – | > 100000 nM | 8.84 µM | 0.107 µM | – | – | –
CCNc1cc(F)c(F)c2c1[nH]c1ncc(-c3cnc4c(c3)c(=O)c(C(=O)O)cn4C)c(N3CCC(CN(C)C)C3)c12 (centres unmarked) [Example 1.106] | 0.244 µM | 19 µg/mL (≈ 33 µM) | 91300 nM | < 0.098 µM | < 0.098 µM | – | – | –
CNc1cc(F)cc2c1[nH]c1ncc(-c3cnc4c(c3)c(=O)c(C(=O)O)cn4NC)c(N3CC4[C@@H](C3)OCCN4C)c12 (some centres unmarked) [Example 1.113] | 0.586 µM | – | > 100000 nM | < 0.098 µM | < 0.098 µM | – | – | –

SMILES | IC50 (A. baumannii (ATCC17978); [4]) | solubility thermodynamic [1] | CC50 at 3 days [2] | IC50 (S. aureus (ATCC29213); Staphylococcus aureus) | IC50 ([3]; Klebsiella pneumoniae) | IC50 (A. baumannii (ATCC17978); A. baumannii ATCC17978) | IC50 (S. aureus (ATCC29213)) | IC50 [3]
CNc1cc(F)c(F)c2c1[nH]c1ncc(-c3cnc4c(c3)c(=O)c(C(=O)O)cn4C)c(N3CCN4CCOCC4C3)c12 (centres unmarked) [Example 1.134] | – | 11 µg/mL (≈ 19.1 µM) | > 100000 nM | – | – | – | – | –
CNc1cc(F)c(F)c2c1[nH]c1ncc(-c3cnc4c(c3)c(=O)c(C(=O)O)cn4C)c(N3CCC(CN(C)C)C3)c12 (centres unmarked) [Example 1.135] | 0.153 µM | 266 µg/mL (≈ 474 µM) | 29300 nM | < 0.098 µM | < 0.098 µM | – | – | –
CNc1cc(Cl)cc2c1[nH]c1ncc(-c3cnc4c(c3)c(=O)c(C(=O)O)cn4C)c(N3CCOC(CN(C)C)C3)c12 (centres unmarked) [Example 1.138] | 0.302 µM | 91 µg/mL (≈ 158 µM) | 47300 nM | < 0.098 µM | < 0.098 µM | – | – | –
CCNc1cc(F)c(F)c2c1[nH]c1ncc(-c3cnc4c(c3)c(=O)c(C(=O)O)cn4C3CCNC3)c(N(C)C)c12 (centres unmarked) [Example 1.140] | 0.631 µM | – | > 100000 nM | < 0.098 µM | < 0.098 µM | – | – | –
CNc1cc(F)c(F)c2c1[nH]c1ncc(-c3cnc4c(c3)c(=O)c(C(=O)O)cn4C3CCNC3)c(N(C)C)c12 (centres unmarked) [Example 1.150] | – | – | > 100000 nM | – | – | 0.273 µM | < 0.098 µM | < 0.098 µM
CNc1cc(F)c(F)c2c1[nH]c1ncc(-c3cnc4c(c3)c(=O)c(C(=O)O)cn4C)c(N3CC[C@@H](O)C3)c12 [Example 1.151] | 0.311 µM | – | 37200 nM | < 0.098 µM | < 0.098 µM | – | – | –
CNc1cc(F)c(F)c2c1[nH]c1ncc(-c3cnc4c(c3)c(=O)c(C(=O)O)cn4C)c(N3CC[C@H](O)C3)c12 [Example 1.163] | 0.171 µM | – | 28800 nM | < 0.098 µM | < 0.098 µM | – | – | –
CNc1cc(F)c(F)c2c1[nH]c1ncc(-c3cnc4c(c3)c(=O)c(C(=O)O)cn4C)c(N3CC[C@H](CO)C3)c12 [Example 1.164] | 0.472 µM | – | 99300 nM | < 0.098 µM | < 0.098 µM | – | – | –
CNc1cc(F)c(F)c2c1[nH]c1ncc(-c3cnc4c(c3)c(=O)c(C(=O)O)cn4C)c(N3CC[C@@H](CO)C3)c12 [Example 1.165] | 0.336 µM | – | > 100000 nM | < 0.098 µM | < 0.098 µM | – | – | –
CNc1cc(F)c(F)c2c1[nH]c1ncc(-c3cnc4c(c3)c(=O)c(C(=O)O)cn4C)c(N3CCC4(CCCN(CCO)C4)C3)c12 (centres unmarked) [Example 1.194] | 0.199 µM | – | 72000 nM | < 0.098 µM | < 0.098 µM | – | – | –
CNc1cc(F)cc2c1[nH]c1ncc(-c3cnc4c(c3)c(=O)c(C(=O)O)cn4NC)c(N3CC[C@H]4CCN(C)C4C3)c12 (some centres unmarked) [Example 1.212] | 0.18 µM | – | 33900 nM | 0.168 µM | < 0.098 µM | – | – | –
CNc1cc(F)c(F)c2c1[nH]c1ncc(-c3cnc4c(c3)c(=O)c(C(=O)O)cn4NC)c(N3CC[C@H]4CN(C)C4C3)c12 (some centres unmarked) [Example 1.214] | 0.111 µM | – | 40800 nM | < 0.098 µM | < 0.098 µM | – | – | –
CNc1cc(F)cc2c1[nH]c1ncc(-c3cnc4c(c3)c(=O)c(C(=O)O)cn4[C@@H](C)CO)c(N3CCOCC3)c12 [Example 1.216] | 0.424 µM | – | > 100000 nM | < 0.098 µM | < 0.098 µM | – | – | –
CNc1cc(F)c(F)c2c1[nH]c1ncc(-c3cnc4c(c3)c(=O)c(C(=O)O)cn4C)c(N3CCC4(CCN(C)C4)CC3)c12 [Example 1.231] | 0.542 µM | – | 37200 nM | < 0.098 µM | < 0.098 µM | – | – | –
CNc1cc(F)c(F)c2c1[nH]c1ncc(-c3cnc4c(c3)c(=O)c(C(=O)O)cn4C)c(N3CCC4(CCCN4C)C3)c12 (centres unmarked) [Example 1.239] | 0.104 µM | – | 32900 nM | < 0.098 µM | < 0.098 µM | – | – | –
CNc1cc(F)c(Cl)c2c1[nH]c1ncc(-c3cnc4c(c3)c(=O)c(C(=O)O)cn4C)c(N3CCOCC3)c12 [Example 1.269] | 0.088 µM | – | 40800 nM | < 0.098 µM | < 0.098 µM | – | – | –
